From ChEMBL document CHEMBL2029272, “7-Azabicyclo[2.2.1]heptane as a scaffold for the development of selective sigma-2 (σ2) receptor ligands” (Bioorg Med Chem Lett, 2012)

Key:
D(1B) dopamine receptor = D(1B) dopamine receptor (Homo sapiens, UniProt P21918); test: Inhibition of D5 dopamine receptor
D(3) dopamine receptor [1] = molecular target: T1, D(3) dopamine receptor (Homo sapiens, UniProt P35462); test: Inhibition of D3 dopamine receptor at 10 uM
[2] = molecular target: Muscarinic acetylcholine receptor M1 (Homo sapiens) (UniProt P11229); test: Inhibition of M1 muscarinic receptor at 10 uM
Muscarinic acetylcholine receptor M1 (Homo sapiens), sequence (P11229 whole entry): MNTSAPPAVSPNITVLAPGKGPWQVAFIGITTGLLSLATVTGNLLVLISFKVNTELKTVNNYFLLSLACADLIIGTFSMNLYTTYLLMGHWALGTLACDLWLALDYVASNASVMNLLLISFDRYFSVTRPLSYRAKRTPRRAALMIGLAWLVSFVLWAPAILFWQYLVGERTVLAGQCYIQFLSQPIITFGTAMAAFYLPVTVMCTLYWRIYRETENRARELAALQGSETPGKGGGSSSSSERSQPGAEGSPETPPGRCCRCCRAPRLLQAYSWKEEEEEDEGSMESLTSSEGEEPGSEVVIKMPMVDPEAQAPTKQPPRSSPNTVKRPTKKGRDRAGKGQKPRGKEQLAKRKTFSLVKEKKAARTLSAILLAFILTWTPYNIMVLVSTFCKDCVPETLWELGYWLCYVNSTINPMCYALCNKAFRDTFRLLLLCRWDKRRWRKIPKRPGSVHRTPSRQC

[3] = molecular target: Muscarinic acetylcholine receptor M2 (Homo sapiens) (UniProt P08172); test: Inhibition of M2 muscarinic receptor at 10 uM
[4] = molecular target: T2, Muscarinic acetylcholine receptor M3 (Homo sapiens, UniProt P20309); test: Inhibition of M3 muscarinic receptor at 10 uM
Target sequence in this assay (P20309 whole entry, looked up): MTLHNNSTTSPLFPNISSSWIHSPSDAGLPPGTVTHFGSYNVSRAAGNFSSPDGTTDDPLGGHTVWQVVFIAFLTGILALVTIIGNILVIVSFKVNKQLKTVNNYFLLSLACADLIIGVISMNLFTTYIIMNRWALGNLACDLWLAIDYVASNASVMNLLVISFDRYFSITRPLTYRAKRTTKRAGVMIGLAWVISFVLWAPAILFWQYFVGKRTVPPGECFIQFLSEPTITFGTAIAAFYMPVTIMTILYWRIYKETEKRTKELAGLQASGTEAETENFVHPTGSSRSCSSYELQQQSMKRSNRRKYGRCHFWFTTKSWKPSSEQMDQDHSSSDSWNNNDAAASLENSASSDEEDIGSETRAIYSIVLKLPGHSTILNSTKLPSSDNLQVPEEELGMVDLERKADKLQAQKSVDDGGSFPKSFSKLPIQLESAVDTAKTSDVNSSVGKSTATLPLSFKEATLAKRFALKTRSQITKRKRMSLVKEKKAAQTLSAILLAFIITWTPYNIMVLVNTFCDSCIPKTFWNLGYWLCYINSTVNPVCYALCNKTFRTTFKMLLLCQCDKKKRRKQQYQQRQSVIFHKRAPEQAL

[5] = molecular target: Muscarinic acetylcholine receptor M4 (Homo sapiens) (UniProt P08173); test: Inhibition of M4 muscarinic receptor at 10 uM
Muscarinic acetylcholine receptor M4 (Homo sapiens), sequence (P08173 whole entry): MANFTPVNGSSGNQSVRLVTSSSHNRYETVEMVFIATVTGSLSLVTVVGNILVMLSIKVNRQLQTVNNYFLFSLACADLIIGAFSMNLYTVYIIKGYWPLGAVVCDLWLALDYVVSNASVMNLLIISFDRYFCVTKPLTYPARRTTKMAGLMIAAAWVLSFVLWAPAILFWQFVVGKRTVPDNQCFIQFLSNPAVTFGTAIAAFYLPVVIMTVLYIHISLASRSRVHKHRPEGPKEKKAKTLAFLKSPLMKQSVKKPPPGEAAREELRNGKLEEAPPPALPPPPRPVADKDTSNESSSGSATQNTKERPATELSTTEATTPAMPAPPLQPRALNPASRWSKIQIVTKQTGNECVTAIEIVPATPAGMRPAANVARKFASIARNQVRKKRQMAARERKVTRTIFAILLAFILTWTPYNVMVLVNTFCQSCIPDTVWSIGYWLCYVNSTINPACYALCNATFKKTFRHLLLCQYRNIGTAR

[6] = molecular target: Alpha-1B adrenergic receptor (Homo sapiens, UniProt P35368); test: Inhibition of alpha1B adrenergic receptor
Alpha-1B adrenergic receptor, sequence (P35368 whole entry): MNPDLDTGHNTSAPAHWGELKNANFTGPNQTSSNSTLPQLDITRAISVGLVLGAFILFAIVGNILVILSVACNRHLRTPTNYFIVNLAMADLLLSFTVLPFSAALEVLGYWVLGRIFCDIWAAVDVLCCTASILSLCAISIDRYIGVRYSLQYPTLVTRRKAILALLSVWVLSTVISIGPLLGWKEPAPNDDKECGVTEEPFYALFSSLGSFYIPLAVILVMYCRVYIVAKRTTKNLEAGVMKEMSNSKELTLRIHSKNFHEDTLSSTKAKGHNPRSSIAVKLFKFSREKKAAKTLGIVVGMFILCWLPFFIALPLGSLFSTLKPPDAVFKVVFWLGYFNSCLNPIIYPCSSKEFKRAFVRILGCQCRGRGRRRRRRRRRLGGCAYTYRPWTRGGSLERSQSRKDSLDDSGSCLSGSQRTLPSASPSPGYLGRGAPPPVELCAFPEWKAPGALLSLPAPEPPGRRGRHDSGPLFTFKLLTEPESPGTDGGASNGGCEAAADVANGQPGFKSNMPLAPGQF

[7] = molecular target: Alpha-2B adrenergic receptor (Homo sapiens, UniProt P18089); test: Inhibition of alpha2B adrenergic receptor
Alpha-2B adrenergic receptor, sequence (P18089 whole entry): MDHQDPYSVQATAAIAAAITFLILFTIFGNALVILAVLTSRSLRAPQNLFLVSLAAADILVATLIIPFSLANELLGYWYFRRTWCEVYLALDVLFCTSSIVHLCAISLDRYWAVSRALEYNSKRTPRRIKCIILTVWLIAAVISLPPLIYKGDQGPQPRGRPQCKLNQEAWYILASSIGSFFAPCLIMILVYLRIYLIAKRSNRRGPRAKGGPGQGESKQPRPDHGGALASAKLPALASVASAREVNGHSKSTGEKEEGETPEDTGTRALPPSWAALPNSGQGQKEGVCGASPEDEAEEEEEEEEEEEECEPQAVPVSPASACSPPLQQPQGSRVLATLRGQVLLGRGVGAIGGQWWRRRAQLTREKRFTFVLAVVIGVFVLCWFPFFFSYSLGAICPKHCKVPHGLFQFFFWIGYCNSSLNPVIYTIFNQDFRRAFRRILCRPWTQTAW

D(3) dopamine receptor [8] = molecular target: T1, D(3) dopamine receptor; test: Inhibition of D3 dopamine receptor
[9] = molecular target: Sodium-dependent dopamine transporter (Homo sapiens, UniProt Q01959); test: Inhibition of DAT
Sodium-dependent dopamine transporter, sequence (Q01959 whole entry): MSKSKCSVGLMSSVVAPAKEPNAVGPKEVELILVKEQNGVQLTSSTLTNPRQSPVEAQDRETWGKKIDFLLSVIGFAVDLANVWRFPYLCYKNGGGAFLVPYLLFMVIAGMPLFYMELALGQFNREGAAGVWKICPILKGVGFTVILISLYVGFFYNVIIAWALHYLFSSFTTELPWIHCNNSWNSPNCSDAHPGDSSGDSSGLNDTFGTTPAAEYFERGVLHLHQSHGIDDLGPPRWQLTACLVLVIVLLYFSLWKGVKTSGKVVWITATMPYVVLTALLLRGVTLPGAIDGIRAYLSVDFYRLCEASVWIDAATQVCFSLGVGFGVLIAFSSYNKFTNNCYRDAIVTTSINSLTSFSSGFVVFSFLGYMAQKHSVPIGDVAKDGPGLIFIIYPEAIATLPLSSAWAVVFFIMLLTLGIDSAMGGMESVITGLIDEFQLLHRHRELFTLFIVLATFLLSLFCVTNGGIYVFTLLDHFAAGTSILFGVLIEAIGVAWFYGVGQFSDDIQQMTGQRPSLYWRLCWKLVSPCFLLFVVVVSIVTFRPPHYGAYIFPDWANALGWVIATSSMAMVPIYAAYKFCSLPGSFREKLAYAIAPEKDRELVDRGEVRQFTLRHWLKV

[10] = molecular target: Muscarinic acetylcholine receptor M2 (Homo sapiens, UniProt P08172); test: Inhibition of M2 muscarinic receptor
Muscarinic acetylcholine receptor M2, sequence (P08172 whole entry): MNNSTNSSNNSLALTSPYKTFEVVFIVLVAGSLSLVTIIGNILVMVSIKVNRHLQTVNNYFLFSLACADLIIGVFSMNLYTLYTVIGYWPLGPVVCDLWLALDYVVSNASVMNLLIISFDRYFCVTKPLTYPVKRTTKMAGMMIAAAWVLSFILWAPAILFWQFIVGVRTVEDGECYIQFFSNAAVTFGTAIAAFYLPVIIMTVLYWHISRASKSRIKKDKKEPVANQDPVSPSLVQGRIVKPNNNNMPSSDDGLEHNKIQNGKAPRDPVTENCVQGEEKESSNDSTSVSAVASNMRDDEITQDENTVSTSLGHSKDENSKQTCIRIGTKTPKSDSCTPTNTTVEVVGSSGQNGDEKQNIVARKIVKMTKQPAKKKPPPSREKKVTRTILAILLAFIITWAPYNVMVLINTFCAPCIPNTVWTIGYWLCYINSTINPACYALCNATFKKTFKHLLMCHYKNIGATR

[11] = molecular target: T2, Muscarinic acetylcholine receptor M3; test: Inhibition of M3 muscarinic receptor
Target sequence in this assay (P20309 whole entry): as the sequence (P20309 whole entry, looked up) above

[12] = molecular target: Alpha-2C adrenergic receptor (Homo sapiens) (UniProt P18825); test: Inhibition of alpha2C adrenergic receptor at 10 uM
Alpha-2C adrenergic receptor (Homo sapiens), sequence (P18825 whole entry): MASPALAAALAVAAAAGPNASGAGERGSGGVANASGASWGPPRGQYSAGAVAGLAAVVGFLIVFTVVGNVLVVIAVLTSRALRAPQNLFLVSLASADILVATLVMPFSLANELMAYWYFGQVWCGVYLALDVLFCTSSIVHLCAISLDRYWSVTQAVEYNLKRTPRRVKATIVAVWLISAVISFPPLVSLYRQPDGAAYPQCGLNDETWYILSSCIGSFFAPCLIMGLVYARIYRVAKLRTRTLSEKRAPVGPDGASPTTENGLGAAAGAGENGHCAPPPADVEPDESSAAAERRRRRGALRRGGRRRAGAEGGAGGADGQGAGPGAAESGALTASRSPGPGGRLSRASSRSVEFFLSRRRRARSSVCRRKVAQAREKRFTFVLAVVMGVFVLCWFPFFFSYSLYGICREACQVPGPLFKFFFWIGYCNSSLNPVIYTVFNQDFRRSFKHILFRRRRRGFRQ

T1 sequence (P35462 whole entry): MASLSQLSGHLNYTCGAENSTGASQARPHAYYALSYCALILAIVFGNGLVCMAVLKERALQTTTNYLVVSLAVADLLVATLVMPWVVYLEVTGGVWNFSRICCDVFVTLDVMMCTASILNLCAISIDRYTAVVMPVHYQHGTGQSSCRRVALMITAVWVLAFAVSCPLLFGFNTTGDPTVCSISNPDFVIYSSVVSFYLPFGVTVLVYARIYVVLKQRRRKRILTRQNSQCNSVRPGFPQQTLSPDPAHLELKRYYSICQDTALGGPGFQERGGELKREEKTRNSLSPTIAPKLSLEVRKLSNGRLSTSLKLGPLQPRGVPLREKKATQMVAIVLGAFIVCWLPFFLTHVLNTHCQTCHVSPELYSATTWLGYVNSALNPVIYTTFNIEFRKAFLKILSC
D(1B) dopamine receptor, sequence (P21918 whole entry): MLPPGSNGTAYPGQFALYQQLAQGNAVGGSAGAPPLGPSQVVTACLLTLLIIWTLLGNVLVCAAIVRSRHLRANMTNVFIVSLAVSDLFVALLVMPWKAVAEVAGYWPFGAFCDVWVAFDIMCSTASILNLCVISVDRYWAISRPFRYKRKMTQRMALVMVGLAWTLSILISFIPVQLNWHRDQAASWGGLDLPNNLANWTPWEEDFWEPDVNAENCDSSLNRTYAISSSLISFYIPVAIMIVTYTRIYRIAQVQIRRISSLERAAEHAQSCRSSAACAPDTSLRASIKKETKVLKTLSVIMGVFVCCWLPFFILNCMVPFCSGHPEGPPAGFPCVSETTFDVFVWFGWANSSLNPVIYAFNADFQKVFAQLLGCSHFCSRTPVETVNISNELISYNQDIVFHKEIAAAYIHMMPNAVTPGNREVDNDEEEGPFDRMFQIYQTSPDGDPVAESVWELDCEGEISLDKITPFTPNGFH

| Ki (D(1B) dopamine receptor) [µM] | inhibition [2] [%] | inhibition [3] [%] | inhibition [5] [%] | Structure (SMILES) | inhibition (D(3) dopamine receptor [1]) [%] | inhibition [4] [%] | Ki [6] [µM] | Ki [7] [µM] | Ki (D(3) dopamine receptor [8]) [µM] | Ki [9] [µM] | Ki [10] [µM] | Ki [11] [µM] | inhibition [12] [%] |
| --- | --- | --- | --- | --- | --- | --- | --- | --- | --- | --- | --- | --- | --- |
| > 10 | < 50 | < 50 | < 50 | C1CCC(CN2CCCC2)CC1 | < 50 | < 50 | – | – | – | – | – | – | – |
| – | – | – | – | C1CC2CCC1N2CC12C3C4C5C3C1C5C42 (stereo unspecified) | – | – | > 10 | 4.24 | > 10 | > 10 | 0.696 | 0.661 | – |
| – | – | – | – | C1CCC(CN2C3CCC2CC3)CC1 | < 50 | < 50 | – | – | – | – | 4.74 | – | < 50 |
